≈ marks a conversion by molar mass, not a printed value. Non-standard residues stand in square brackets, D forms with d. Residues, ends and D or L forms follow the SMILES beside them. Nspe(4-Br) = C[C@H](NCC(=O)O)c1ccc(Br)cc1; Nlys = NCCCCNCC(=O)O
How the values were obtained:
Format in all cases: cell-based
[1] = system: Pseudomonas aeruginosa PAO1; conditions: PAO1, 24 h
Excerpt: (§3) The S. pneumoniae strains used were SP04, SP06 and SP07 [46] and Streptococcus gallolyticus SV06 (all isolated from eyes of contact lens wearers during adverse events); P. aeruginosa PAO1 (which was originally isolated from a wound, and is an invasive strain containing the gene exoS) as well as isolates from microbial keratitis, PA 235 (invasive strain containing exoS), PA216 (a cytotoxic strain containing exoU), PA219 (cytotoxic strain containing exoU), PA 233 (cytotoxic strain containing exoU), with various susceptibilities to antibiotics were also used [14]. C. albicans ATCC 10231, a yeast, isolated from case of a human bronchomycosis, was also evaluated.
(§4) The peptoids’ minimum inhibitory and bactericidal concentrations (MIC and MBC) were determined using micro broth dilution methods as previously described with slight modifications, [26, 39, 49, 50], and without using acetic acid and bovine serum albumin [39]. Briefly, bacteria or yeast were suspended in Muller Hinton broth (MHB, Oxoid, Thermo Fisher Scientific, Thebarton, SA, Australia) at 0.1 OD660nm, which was equivalent to 1x10^8 colony forming units (CFU) mL^−1. This suspension was further diluted to achieve 5x10^6 CFU mL^−1. The peptoids were diluted in MHB from 250 to 0.24 μg mL^−1 in 96-well polystyrene microplates (COSTAR, Corning Incorporated, New York, NY, USA) [39]. […] This was followed by addition of 100 μL of each microbial suspensions. Wells with only bacteria or the yeast were treated as a negative control, and wells with only MHB medium were treated as a blank. The plates were incubated at 37 °C with shaking at 120 rpm for 24 h. After incubation, the media in each well was serially diluted in phosphate buffered solution and then inoculated onto tryptone soya agar (Oxoid) plates for bacteria, or Sabouraud’s dextrose agar for the yeast, and incubated at 37 °C for 18 hrs. Post incubation, the number of CFUs on the agar plates was counted.

[2] = system: Pseudomonas aeruginosa PA216; conditions: PA216, 24 h
Excerpt: as §3, §4

[3] = system: Pseudomonas aeruginosa PA219; conditions: PA219, 24 h
Excerpt: as §3, §4

[4] = system: Pseudomonas aeruginosa PA233; conditions: PA233, 24 h
Excerpt: All S. aureus strains used were isolated from cases of microbial keratitis (Table 1) with various susceptibilities to antibiotics. The S. pneumoniae strains used were SP04, SP06 and SP07 [46] and Streptococcus gallolyticus SV06 (all isolated from eyes of contact lens wearers during adverse events); P. aeruginosa PAO1 (which was originally isolated from a wound, and is an invasive strain containing the gene exoS) as well as isolates from microbial keratitis, PA 235 (invasive strain containing exoS), PA216 (a cytotoxic strain containing exoU), PA219 (cytotoxic strain containing exoU), PA 233 (cytotoxic strain containing exoU), with various susceptibilities to antibiotics were also used. C. albicans ATCC 10231, a yeast, isolated from case of a human bronchomycosis, was also evaluated.
The peptoids’ minimum inhibitory and bactericidal concentrations (MIC and MBC) were determined using micro broth dilution methods as previously described with slight modifications, [26, 39, 49, 50], and without using acetic acid and bovine serum albumin [39]. Briefly, bacteria or yeast were suspended in Muller Hinton broth (MHB, Oxoid, Thermo Fisher Scientific, Thebarton, SA, Australia) at 0.1 OD660nm, which was equivalent to 1x10^8 colony forming units (CFU) mL^−1. This suspension was further diluted to achieve 5x10^6 CFU mL^−1. The peptoids were diluted in MHB from 250 to 0.24 μg mL^−1 in 96-well polystyrene microplates (COSTAR, Corning Incorporated, New York, NY, USA). This range was selected to cover the range of MIC values previously reported for ESKAPE pathogens. This was followed by addition of 100 μL of each microbial suspensions. Wells with only bacteria or the yeast were treated as a negative control, and wells with only MHB medium were treated as a blank. The plates were incubated at 37 °C with shaking at 120 rpm for 24 h. After incubation, the media in each well was serially diluted in phosphate buffered solution and then inoculated onto tryptone soya agar (Oxoid) plates for bacteria, or Sabouraud’s dextrose agar for the yeast, and incubated at 37 °C for 18 hrs. Post incubation, the number of CFUs on the agar plates was counted.

[5] = system: Pseudomonas aeruginosa PA235; conditions: PA235, 24 h
Excerpt: as §3, §4

[6] = system: Staphylococcus aureus SA34; conditions: SA34, 24 h
Excerpt: as §3, §4

[7] = system: Staphylococcus aureus SA65; conditions: SA65, 24 h
Excerpt: as §3, §4

[8] = system: Staphylococcus aureus SA113; conditions: SA113, 24 h
Excerpt: as §3, §4

[9] = system: Staphylococcus aureus SA114; conditions: SA114, 24 h
Excerpt: as §3, §4

[10] = system: Staphylococcus aureus SA117; conditions: SA117, 24 h
Excerpt: as §3, §4

[11] = system: Streptococcus pneumoniae SP04; conditions: SP04, 24 h
Excerpt: as §3, §4

[12] = system: Streptococcus pneumoniae SP06; conditions: SP06, 24 h
Excerpt: as §3, §4

[13] = system: Streptococcus pneumoniae SP07; conditions: SP07, 24 h
Excerpt: as §3, §4

[14] = system: Streptococcus gallolyticus SG04; conditions: 24 h
Excerpt: as §3, §4

[15] = system: viridans group streptococcus SV06; conditions: 24 h
Excerpt: as §3, §4

[16] = system: Candida albicans ATCC 10231; experiment: MIC/MBC (fungicidal) micro broth dilution; conditions: ATCC 10231 (yeast), MHB, 24 h 37 °C
Excerpt: as §3, §4

horse erythrocytes = experiment: In vitro assay for hemolysis, horse blood
Procedure: (§1) Hemolysis caused by the peptoids was measured using 18 to 20 mL of a horse or human blood collected in EDTA-coated tubes which has been centrifuged at 500×g for 5 min. The supernatant was discarded and the pellet containing the cells were resuspended in PBS to a final volume of 20 mL. This step was repeated five times. After the final wash, the pellet was resuspended in PBS at the ratio of 1:10 (1 mL red blood cell: 9 mL PBS) to yield a final red blood cell (RBC) concentration of approximately 5 × 10^8 cells mL^−1. The concentration of RBCs was confirmed using a hemocytometer. The peptoids (stock concentration 2 mM) were diluted sequentially (two-fold dilutions) in PBS to final concentrations of […]. All the dilutions were subsequently mixed with the RBC suspension at the ratio of 1:1. MilliQ water was used as a positive control and PBS was used as a negative control in this assay. All samples were incubated at 37 °C for 3 h. Following incubation, the tubes were centrifuged at 500 x g for five mins, the supernatants were collected, transferred to wells in a 96 well plate and their optical density was measured at 540 nm. The percentage of hemolysis was calculated by dividing the absorbance of the test sample by the absorbance of the positive control, and multiplying by 100. Data are presented as the hemolysis caused by each dilution of peptoid, and as the concentration of peptoid that caused 10 % or 50 % lysis of red blood cells.
(§2) The geometric mean is the nth root of the multiplied numbers, where n is the total number of data values. A similar formula was used to calculate the selectivity ratio, but by using the concentration of peptoid that caused 10 % hemolysis.

human erythrocytes = experiment: In vitro assay for hemolysis, human blood
Procedure: as §1, §2

`C[C@@H](c1ccc(Br)cc1)N(CC(=O)N(CCCCN)CC(=O)N(CC(=O)N(CC(=O)N(CCCCN)CC(N)=O)[C@@H](C)c1ccc(Br)cc1)[C@@H](C)c1ccc(Br)cc1)C(=O)CN(C(=O)CNCCCCN)[C@@H](C)c1ccc(Br)cc1` [TM14] (H-[Nlys][Nspe(4-Br)][Nspe(4-Br)][Nlys][Nspe(4-Br)][Nspe(4-Br)][Nlys]-NH2) gave an MBC [1] of 15 µg/mL (≈ 11 µM), an MIC [1] of 7.8 µg/mL (≈ 5.73 µM) and an MBC [2] of 15 µg/mL (≈ 11 µM). For the same compound, the MIC [2] was 7.8 µg/mL (≈ 5.73 µM), the MBC [3] was 15(11)/15(11) μg mL^−1 and the MIC [3] was 15(11)/15(11) μg mL^−1. The MBC [4] was 31 µg/mL (≈ 22.8 µM), the MIC [4] was 15 µg/mL (≈ 11 µM) and the MBC [5] was 31 µg/mL (≈ 22.8 µM). For the same compound, the MIC [5] was 15 µg/mL (≈ 11 µM), the MBC [6] was 3.9(2.9)/3.9(2.9) μg mL^−1 and the MIC [6] was 3.9(2.9)/3.9(2.9) μg mL^−1. For the same compound, the MBC [7] was 1.9(1.4)/1.9(1.4) μg mL^−1, the MIC [7] was 1.9(1.4)/1.9(1.4) μg mL^−1 and the MBC [8] was 3.9 µg/mL (≈ 2.86 µM). The MIC [8] was 1.9 µg/mL (≈ 1.4 µM), the MBC [9] was 1.9(1.4)/1.9(1.4) μg mL^−1 and the MIC [9] was 1.9(1.4)/1.9(1.4) μg mL^−1. The MBC [10] was 3.9(2.9)/3.9(2.9) μg mL^−1, the MIC [10] was 3.9(2.9)/3.9(2.9) μg mL^−1 and the MBC [11] was 15(11)/15(15) μg mL^−1. The MIC [11] was 15(11)/15(15) μg mL^−1, the MBC [12] was 1.9(1.4)/1.9(1.4) μg mL^−1 and the MIC [12] was 1.9(1.4)/1.9(1.4) μg mL^−1. For the same compound, the MBC [13] was 15(11)/15(11) μg mL^−1, the MIC [13] was 15(11)/15(11) μg mL^−1 and the MBC [14] was 15(11)/15(11) μg mL^−1. The MIC [14] was 15(11)/15(11) μg mL^−1, the MBC [15] was 15(11)/15(11) μg mL^−1 and the MIC [15] was 15(11)/15(11) μg mL^−1. The MIC ([16]; ≥90 % reduction in CFUs) was 3.9(2.8)/3.9(2.8) μg mL^−1, the “MBC (minimum fungicidal concentration)” value ([16]; ≥99.99 % reduction in CFUs) was 3.9(2.8)/3.9(2.8) μg mL^−1 and the “SR horse blood (ratio HC10 to geometric mean MIC)” value (horse erythrocytes) was 0.8. For the same compound, the “Horse HC10” value (horse erythrocytes; red cells of horse, 3 h) was 3 µM, the “Horse HC50” value (horse erythrocytes; red cells of horse, 3 h) was 45 µM and the “TI horse blood (ratio HC50 to geometric mean MIC)” value (horse erythrocytes; therapeutic index) was 11. For the same compound, the “SR human blood (ratio HC10 to geometric mean MIC)” value (human erythrocytes) was 2, the “Human HC10” value (human erythrocytes; red cells of human, 3 h) was 8 µM and the “Human HC50” value (human erythrocytes; red cells of human, 3 h) was 90 µM. For the same compound, the “TI human blood (ratio HC50 to geometric mean MIC)” value (human erythrocytes; therapeutic index) was 23.

From PMC11024869, “The activity of antimicrobial peptoids against multidrug-resistant ocular pathogens” (Contact lens & anterior eye : the journal of the British …, 2024)
